{"source": "patent US20080200492A1", "about": "“METHODS FOR THE TREATMENT OF ALCOHOL ABUSE, ADDICTION AND DEPENDENCY” (priority 2006, published 2008)", "origin": "cited, not measured here", "system": "golden hamster", "details": "cited from earlier work", "data": [{"smiles": "O=c1c(-c2ccc(O)cc2)coc2cc(O[C@@H]3O[C@H](CO)[C@@H](O)[C@H](O)[C@H]3O)ccc12", "note": "[Daidzin]", "values": [{"measurement": "Alcohol drinking, water or food intake", "value": "decreases alcohol drinking in the golden hamster, without producing a decrease in water or food intake"}]}]}
